According to paper PMC11083769, “Characterization and pharmacokinetics of cinnamon and star anise compound essential oil pellets prepared via centrifugal granulation technology” (BMC Veterinary Research, 2024):
Converted amounts (≈) assume the structure as drawn. Marks after values point to notes of the source that are not given here.

Key:
[1] = system: Staphylococcus aureus Newman strain; parameters: method as in PMID 32185411; details: cited from earlier work
[2] = Pharmacokinetics of compound essential oil pellets in pig model; assay type: in vivo; details: single dose, n = 6
From the text: Six healthy Landrace × Large White hybrid pigs were randomly divided into three groups for pharmacokinetic experiments and were purchased from JuCong Agriculture, Nanning, Guangxi. During the adaptation period, the temperature of the breeding environment was 18–25℃, the relative humidity was 50–65%, and commercial feed and water free of antibiotics and target drugs were freely available to the pigs housed individually in six pig pens. After the experiment, the pigs were released.
After one week in the experimental setting, the pigs were labelled with numbers 1–6, randomly divided into 3 groups, and weighed before the experiment. […] Compound essential oil pellets were orally administered at three different doses of 50, 100 and 200 mg/kg. Three cycles of crossover trials were performed with 6 pigs, with each cycle separated by 7 days. 5 mL of blood was collected from the anterior vena cava at different time points after administration, centrifuged at 3000 r/min for 10 min, after which the plasma was separated. The drug concentration in the plasma was detected by GC‒MS/MS after pretreatment.
The average drug-time curve of each group was drawn. WinNonlin version 5.2.1 was used to calculate the pharmacokinetic parameters.
The compound essential oil pellet concentration was measured using GC‒MS/MS. The chromatographic conditions were as follows. A PEG-20 M column (30 m × 0.32 mm, 0.25 μm) was used. The temperature was increased from 90 ℃ to 160 ℃ at a heating rate of 10 ℃/min, held for 5 min, further increased from 160 ℃ to 280 ℃ at a heating rate of 20 ℃/min and held for 2 min.

[3] = oral compound essential oil pellets 50 mg/kg
[4] = oral compound essential oil pellets 100 mg/kg
[5] = oral compound essential oil pellets 200 mg/kg

C/C=C/c1ccc(OC)cc1 [trans-anethole, Trans-anethole]
MIC [1]: 49.4 mg/mL (≈ 333 mM)

O=C/C=C/c1ccccc1 [cinnamaldehyde, Cinnamaldehyde]
AUC0−∞ of plasma cinnamaldehyde [2, 3]: 1433.11 ± 21.30^a h·µg/L | CL of plasma cinnamaldehyde [2, 3]: 18.69 ± 1.81^ac L/h/kg | Cmax of plasma cinnamaldehyde [2, 3]: 58.81 ± 6.16^a µg/L | MRT0−∞ of plasma cinnamaldehyde [2, 3]: 20.96 ± 0.21^a h | T1/2 of plasma cinnamaldehyde [2, 3]: 14.52 ± 0.14^a h | Tmax of plasma cinnamaldehyde [2, 3]: 2.00 h | Vz of plasma cinnamaldehyde [2, 3]: 1205.24 ± 149.37^ab L/kg | AUC0−∞ of plasma cinnamaldehyde [2, 4]: 467.05 ± 141.28^d h·µg/L | CL of plasma cinnamaldehyde [2, 4]: 142.48 ± 40.58^d L/h/kg | Cmax of plasma cinnamaldehyde [2, 4]: 37.57 ± 5.56^d µg/L | MRT0−∞ of plasma cinnamaldehyde [2, 4]: 17.62 ± 1.84^d h | T1/2 of plasma cinnamaldehyde [2, 4]: 12.21 ± 1.27^d h | Tmax of plasma cinnamaldehyde [2, 4]: 2.00 h | Vz of plasma cinnamaldehyde [2, 4]: 7671.46 ± 1809.86^d L/kg | AUC0−∞ of plasma cinnamaldehyde [2, 5]: 1653.25 ± 295.40 µg·h/L | CL of plasma cinnamaldehyde [2, 5]: 56.85 ± 15.32 L/h/kg | Cmax of plasma cinnamaldehyde [2, 5]: 64.18 ± 2.33 µg/L | MRT0−∞ of plasma cinnamaldehyde [2, 5]: 20.68 ± 0.61 h | T1/2 of plasma cinnamaldehyde [2, 5]: 14.33 ± 0.42 h | Tmax of plasma cinnamaldehyde [2, 5]: 2.00 h | Vz of plasma cinnamaldehyde [2, 5]: 4593.67 ± 625.29 L/kg
